# What was measured:
# MCF-7/ADR tumours = assay: CSC marker status in in vivo treated MCF-7/ADR tumours (flow cytometry); design: species or system mice; conditions: treated 3 times in a week; 1 nmol PEG-chimera, 5 mg/kg doxorubicin; n=8
# Experimental: A 20-kDa PEG was attached to the 5′-end of siRNA-aptamer-chimera in order to extend its systemic circulation time. […] Day 2 after the last (third) treatment, tumours were removed, its weight determined and the percentage of breast cancer stem cell marker (EpCAM^+/CD44^+/CD24^−) positive cells in the treatment groups and various control groups was studied via flow cytometray.
# MCF-7/ADR tumours ([…]) were treated 3 times in a week with 1 nmol PEG-chimera+5 mg/kg doxorubicin. Single cell suspension was prepared for flow cytometry (n=8). Remarks
# HT29 spheres = assay: FACS analysis of CSC markers in treated HT29 spheres; format: cell-based, human; conditions: HT29 spheres after treatment
# Text: Salinomycin (Sal), known to target CSC^23, was used as a positive control to validate our assays.
# MCF7/ADR tumour = assay: Xenotransplantation-LDA of in vivo treated MCF7/ADR tumours; conditions: 1 nmole chimera, 5 mg/kg Dox, Day 50
# Experimental: An orthotopic breast cancer model was established by implanting 3×10^6 MCF7/ADR cells (mixed with Matrigel) per site in NOD-SCID mice. When tumours reached a volume of ˜200 mm^3, we started treatment via tail vein injection. The mice (n=5) were treated at Day 1, 3, 5, with i.v. (bolus) injection of 1 nmole of EpCAM aptamer-siRNA chimera; and Day 2, 4, 6, with i.v. (bolus) injection of 5 mg/kg doxorubicin. The animals were euthanized on Day 10 and tumours harvested and subjected to xenotransplantation and in vivo extreme limiting dilution analysis.
# [1] = system: PLC/PRF/5 hepatocellular carcinoma cell line; assay: Tumoursphere formation in 96-well, PLC/PRF/5; format: cell-based, human
# HT29 cell populations = assay: Extreme limiting dilution/xenotransplantation assay (ELDA) of treated HT29 tumours; format: in vivo, NOD/SCID mice; conditions: 9 weeks after inoculation
# Text: The inventor first studied whether the aptamer-Dox conjugate could efficiently target tumour in vivo via live animal imaging with an on-site IVIS Lumina II imaging station. […] The ability of aptamer-Dox to target CSC was further tested in vivo using the gold standard extreme limiting dilution/xenotransplantation assay (ELDA). To this end, the inventor injected 1×10^6 HT29 cells s.c. into NOD/SCID mice. When tumours reached a size of 3 mm, the mice were randomized and treated serially for 3 days at a daily dose of 5 mg/Kg of either free Dox, EpCAM aptamer-Dox or control aptamer-Dox via tail vein injection. Mice were sacrificed one week after the last treatment. […] The experiment as repeated and single cell suspensions prepared from the treated tumours (as in FIG. 14) and ELDA (Extreme limiting dilution analysis) performed to assess the effect on CSC frequency.
# HT29 colon cancer cells = assay: Tumoursphere formation in 96-well, HT29; format: cell-based, human; conditions: 5 days; for Number of wells with sphere: HT29, 3 μM Dox equivalent
# Experimental: Under non-adherent and serum-free conditions, only the cancer stem cells (CSCs) and progenitor cells survive and undergo self-renewal as well as proliferate to form tumour spheres. The inventor studied the ability of aptamer-Dox to target cancer stem cells by plating various cell doses of single-cell suspension of HT29 colon cancer cells in ultra-low attachment 96-wells in the presence of 3 μM of free Dox, 3 μM equivalent Dox conjugated with aptamer, 3 μM Dox-negative control aptamer or vehicle control for 5 days. Tumour spheres (with a size >50 μm) were enumerated.
# MCF7/ADR cells = assay: Tumourigenicity ex vivo: treated MCF7/ADR cells xenotransplanted, extreme limiting dilution; format: in vivo, NOD/SCID mice; conditions: 20 nM chimera, 300 nM Dox, Day 40
# Experimental: The inventor hypothesized that the CSC-targeted delivery of survivin siRNA would make CSC sensitive to Dox. Indeed, after treatment (without transfection reagent) with 20 nM chimera plus 300 nM Dox for 72 h, there was a ˜80% reduction in the number of mammospheres in both the first and second round of tumoursphere assays (not shown), indicating a significant portion of cancer stem cells had been eliminated. The inventor further confirmed the effect of the chimera plus Dox on cancer stem cells' tumourigenicity by xenotransplanting treated cells into the 4th inguinal mammary fat pads of NOD/SCID mice coupled with an extreme limiting dilution analysis to assess CSC frequency (at Day 40 alter implantation) (Table 6).
# HT29 cells = assay: Tumour formation ex vivo: in vitro treated HT29 cells xenotransplanted; design: species or system NOD/SCID mice; conditions: cells treated 3 μM, 5 days, Day 50
# Text: As sphere formation is a surrogate assay for in vivo tumourigenicity, the inventor examined whether the in vitro treated cells could generate tumours upon xenotransplantation. […] As shown in FIG. 12 and Table 4, free Dox-treated cells formed tumours in every mouse studied but no tumour was detected in mice cells (Table 4) at Day 50 after receiving aptamer-Dox-treated tumour implantation.
structure (smiles),measurement,setting,value
"COc1cccc2c1C(=O)c1c(O)c3c(c(O)c1C2=O)C[C@@](O)(C(=O)CO)C[C@@H]3O[C@H]1C[C@H](N)[C@H](O)[C@H](C)O1 [Free Dox, doxorubicin]",Percentage EpCAM+/CD44+/CD24−,MCF-7/ADR tumours,11.6
same,EpCAM^high/CD44^high/CD24^high cells,HT29 spheres,91%
same,No. of tumours/no. of mice,MCF7/ADR tumour; 0.5 × 10^6 cells injected,0/4
same,No. of tumours/no. of mice,MCF7/ADR tumour; 1 × 10^6 cells injected,1/4
same,No. of tumours/no. of mice,MCF7/ADR tumour; 3 × 10^6 cells injected,3/4
same,No. of tumours/no. of mice,MCF7/ADR tumour; 5 × 10^6 cells injected,4/4
same,Number of wells with sphere,[1]; 1 cell seeded/well,0/10
same,Number of wells with sphere,[1]; 10 cells seeded/well,10/10
same,Number of wells with sphere,[1]; 100 cells seeded/well,10/10
same,Number of wells with sphere,[1]; 200 cells seeded/well,10/10
same,No. tumour/No. mice,HT29 cell populations; 1 × 10^4 cells injected,0/6
same,No. tumour/No. mice,HT29 cell populations; 1 × 10^5 cells injected,6/6
same,No. tumour/No. mice,HT29 cell populations; 1 × 10^6 cells injected,6/6
same,effect on HT29 tumour sphere formation (in words),HT29 colon cancer cells; 3 μM Dox,no effect
same,Number of wells with sphere,HT29 colon cancer cells; 1 cell seeded/well,0/10
same,Number of wells with sphere,HT29 colon cancer cells; 10 cells seeded/well,10/10
same,Number of wells with sphere,HT29 colon cancer cells; 100 cells seeded/well,10/10
same,Number of wells with sphere,HT29 colon cancer cells; 200 cells seeded/well,10/10
same,No. of tumours/no. of mice,MCF7/ADR cells; 0.5 × 10^6 cells injected,0/5
same,No. of tumours/no. of mice,MCF7/ADR cells; 1 × 10^6 cells injected,1/5
same,No. of tumours/no. of mice,MCF7/ADR cells; 3 × 10^6 cells injected,3/5
same,No. of tumours/no. of mice,MCF7/ADR cells; 5 × 10^6 cells injected,5/5
same,No. tumour/No. mice,HT29 cells; 1 × 10^5 cells injected,5/5
same,No. tumour/No. mice,HT29 cells; 1 × 10^6 cells injected,5/5
